Assay results: US9695155B2, “Herbicidal substituted pyrimidinyloxy benzene compounds” (E. I. DU PONT DE NEMOURS AND COMPANY, priority 2013, dated 2017)

Key:
oilseed rape = experiment: Test D preemergence; format: in vivo, Brassica napus; conditions: Brassica napus, pre-emergence
In short: (§1)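 Seeds sown in silt loam soil got preemergence sprays; plants in peat/vermiculite potting medium were sprayed postemergence at 2–18 cm (1- to 4-leaf stage). Chemicals were formulated in a non-phytotoxic solvent mixture with surfactant. After 7 to 21 days in a controlled environment, injury was rated visually versus controls, 0 (no effect) to 100 (complete control).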

chamomile = experiment: Test D preemergence; format: in vivo, Matricaria inodora; conditions: Tripleurospermum inodorum, pre-emergence
In short: as §1

speedwell = experiment: Test D preemergence; format: in vivo, Veronica persica; conditions: Veronica persica, pre-emergence
In short: as §1

wild buckwheat = experiment: Test D preemergence; format: in vivo, Polygonum convolvulus; conditions: Fallopia convolvulus, pre-emergence
In short: as §1

wild mustard [1] = experiment: Test D preemergence; format: in vivo, Sinapis arvensis; conditions: Brassica, pre-emergence
In short: as §1

wild oat = experiment: Test D preemergence; format: in vivo, Avena fatua; conditions: Avena fatua, pre-emergence
In short: as §1

windgrass = experiment: Test D preemergence; format: in vivo, Apera spica-venti; conditions: Apera spica-venti, pre-emergence
In short: as §1

field violet = experiment: Test D postemergence; format: in vivo, Viola arvensis; conditions: Viola arvensis, post-emergence
In short: as §1

green foxtail = experiment: Test D postemergence; format: in vivo, Setaria viridis; conditions: Setaria viridis, post-emergence
In short: as §1

deadnettle = experiment: Test D postemergence; format: in vivo, Lamium amplexicaule; conditions: Lamium amplexicaule, post-emergence
In short: as §1

wild mustard [2] = experiment: Test D postemergence; format: in vivo, Sinapis arvensis; conditions: Brassica, post-emergence
In short: as §1

sandbur = experiment: Test E postemergence; format: in vivo, Cenchrus echinatus; conditions: Cenchrus echinatus, post-emergence, read-out: Plant response rating, Sandbur
From the text: Seeds of plant species selected from corn (Zea mays), soybean (Glycine max), velvetleaf (Abutilon theophrasti), lambsquarters (Chenopodium album), wild poinsettia (Euphorbia heterophylla), palmer pigweed (Amaranthus palmeri), waterhemp (common waterhemp, Amaranthus rudis), surinam grass (Brachiaria decumbens), large (Lg) crabgrass (Digitaria sanguinalis), Brazilian crabgrass (Digitaria horizontalis), fall panicum (Panicum dichotomiflorum), giant foxtail (Setaria faberii), green foxtail (Setaria viridis), goosegrass (Eleusine indica), johnsongrass (Sorghum halepense), ragweed (common ragweed, Ambrosia elatior), barnyardgrass (Echinochloa crus-galli), sandbur (southern sandbur, Cenchrus echinatus), arrowleaf sida (Sida rhombifolia), Italian ryegrass (Lolium multiflorum), dayflower (Virginia (VA) dayflower, Commelina virginica), field bindweed (Convolvulus arvensis), morningglory (Ipomoea coccinea), nightshade (eastern black nightshade, Solanum ptycanthum), kochia (Kochia scoparia), yellow nutsedge (Cyperus esculentus), cocklebur (common cocklebur, Xanthium strumarium), smartweed (ladysthumb smartweed, and hairy beggarticks (Bidens pilosa), were planted into a silt loam soil and treated preemergence with test chemicals formulated in a non-phytotoxic solvent mixture which included a surfactant.
At the same time, plants from these crop and weed species and also horseweed (Canada horseweed, Conyza canadensis), waterhemp_RES1, (ALS & Triazine resistant common waterhemp, Amaranthus rudis), and waterhemp_RES2, (ALS & HPPD resistant common waterhemp, Amaranthus rudis) were planted in pots containing Redi-Earth® planting medium (Scotts Company, 14111 Scottslawn Road, Marysville, Ohio 43041) comprising spaghnum peat moss, vermiculite, wetting agent and starter nutrients were treated with postemergence applications of test chemicals formulated in the same manner. Plants ranged in height from 2 to 18 cm for postemergence treatments (1- to 4-leaf stage). Treated plants and controls were maintained in a greenhouse for 14 to 21 days, after which time all species were compared to controls and visually evaluated. Plant response ratings, summarized in Table E, are based on a scale of 0 to 100 where 0 is no effect and 100 is complete control. A dash (-) response means no test result.

Compound Clc1cnc(Oc2ccccc2-n2cc(Br)cn2)nc1 [Compound 7, 2-[2-(4-bromo-1H-pyrazol-1-yl)phenoxy]-5-chloropyrimidine] has a plant injury at 16 g/ha (oilseed rape; 16 g ai/ha, scale 0 (no effect) to 100 (complete control), read-out: Plant response rating, Oilseed Rape) of 0%, a plant injury at 31 g/ha (oilseed rape; 31 g ai/ha, scale 0-100, read-out: Plant response rating, Oilseed Rape) of 10% and a plant injury at 62 g/ha (oilseed rape; 62 g ai/ha, scale 0-100, read-out: Plant response rating, Oilseed Rape) of 25%. For the same compound, the plant injury at 125 g/ha (oilseed rape; 125 g ai/ha, scale 0-100, read-out: Plant response rating, Oilseed Rape) was 100%, the plant injury at 250 g/ha (oilseed rape; 250 g ai/ha, scale 0-100, read-out: Plant response rating, Oilseed Rape) was 100% and the pest or weed control at 16 g/ha (chamomile; 16 g ai/ha, scale 0 (no effect) to 100 (complete control), read-out: Plant response rating, Chamomile) was 0%. For the same compound, the pest or weed control at 31 g/ha (chamomile; 31 g ai/ha, scale 0-100, read-out: Plant response rating, Chamomile) was 0%, the pest or weed control at 62 g/ha (chamomile; 62 g ai/ha, scale 0-100, read-out: Plant response rating, Chamomile) was 0% and the pest or weed control at 125 g/ha (chamomile; 125 g ai/ha, scale 0-100, read-out: Plant response rating, Chamomile) was 20%. It also gave a pest or weed control at 250 g/ha (chamomile; 250 g ai/ha, scale 0-100, read-out: Plant response rating, Chamomile) of 25%, a pest or weed control at 16 g/ha (speedwell; 16 g ai/ha, scale 0 (no effect) to 100 (complete control), read-out: Plant response rating, Speedwell) of 20% and a pest or weed control at 31 g/ha (speedwell; 31 g ai/ha, scale 0 (no effect) to 100 (complete control), read-out: Plant response rating, Speedwell) of 50%. The pest or weed control at 62 g/ha (speedwell; 62 g ai/ha, scale 0-100, read-out: Plant response rating, Speedwell) was 100%, the pest or weed control at 125 g/ha (speedwell; 125 g ai/ha, scale 0-100, read-out: Plant response rating, Speedwell) was 100% and the pest or weed control at 250 g/ha (speedwell; 250 g ai/ha, scale 0-100, read-out: Plant response rating, Speedwell) was 100%. It also gave a pest or weed control at 16 g/ha (wild buckwheat; 16 g ai/ha, scale 0 (no effect) to 100 (complete control), read-out: Plant response rating, Buckwheat, Wild) of 0%, a pest or weed control at 31 g/ha (wild buckwheat; 31 g ai/ha, scale 0-100, read-out: Plant response rating, Buckwheat, Wild) of 0% and a pest or weed control at 62 g/ha (wild buckwheat; 62 g ai/ha, scale 0-100, read-out: Plant response rating, Buckwheat, Wild) of 75%. It also gave a pest or weed control at 125 g/ha (wild buckwheat; 125 g ai/ha, scale 0-100, read-out: Plant response rating, Buckwheat, Wild) of 80%, a pest or weed control at 250 g/ha (wild buckwheat; 250 g ai/ha, scale 0-100, read-out: Plant response rating, Buckwheat, Wild) of 90% and a pest or weed control at 16 g/ha (wild mustard [1]; 16 g ai/ha, scale 0 (no effect) to 100 (complete control), read-out: Plant response rating, Mustard, Wild) of 20%. The pest or weed control at 31 g/ha (wild mustard [1]; 31 g ai/ha, scale 0-100, read-out: Plant response rating, Mustard, Wild) was 20%, the pest or weed control at 62 g/ha (wild mustard [1]; 62 g ai/ha, scale 0-100, read-out: Plant response rating, Mustard, Wild) was 80% and the pest or weed control at 125 g/ha (wild mustard [1]; 125 g ai/ha, scale 0-100, read-out: Plant response rating, Mustard, Wild) was 90%. For the same compound, the pest or weed control at 250 g/ha (wild mustard [1]; 250 g ai/ha, scale 0-100, read-out: Plant response rating, Mustard, Wild) was 100%, the pest or weed control at 16 g/ha (wild oat; 16 g ai/ha, scale 0 (no effect) to 100 (complete control), read-out: Plant response rating, Oat, Wild) was 0% and the pest or weed control at 31 g/ha (wild oat; 31 g ai/ha, scale 0-100, read-out: Plant response rating, Oat, Wild) was 0%. The pest or weed control at 62 g/ha (wild oat; 62 g ai/ha, scale 0-100, read-out: Plant response rating, Oat, Wild) was 0%, the pest or weed control at 125 g/ha (wild oat; 125 g ai/ha, scale 0-100, read-out: Plant response rating, Oat, Wild) was 10% and the pest or weed control at 250 g/ha (wild oat; 250 g ai/ha, scale 0-100, read-out: Plant response rating, Oat, Wild) was 10%. It also gave a pest or weed control at 16 g/ha (windgrass; 16 g ai/ha, scale 0 (no effect) to 100 (complete control), read-out: Plant response rating, Windgrass) of 0%, a pest or weed control at 31 g/ha (windgrass; 31 g ai/ha, scale 0 (no effect) to 100 (complete control), read-out: Plant response rating, Windgrass) of 0% and a pest or weed control at 62 g/ha (windgrass; 62 g ai/ha, scale 0-100, read-out: Plant response rating, Windgrass) of 0%. The pest or weed control at 125 g/ha (windgrass; 125 g ai/ha, scale 0-100, read-out: Plant response rating, Windgrass) was 0%, the pest or weed control at 250 g/ha (windgrass; 250 g ai/ha, scale 0-100, read-out: Plant response rating, Windgrass) was 30% and the pest or weed control at 16 g/ha (field violet; 16 g ai/ha, scale 0-100, read-out: Plant response rating, Field Violet) was 10%. It also gave a pest or weed control at 31 g/ha (field violet; 31 g ai/ha, scale 0 to 100 (0 no effect, 100 complete control), read-out: Plant response rating, Field Violet) of 20%, a pest or weed control at 62 g/ha (field violet; 62 g ai/ha, scale 0 to 100 (0 no effect, 100 complete control), read-out: Plant response rating, Field Violet) of 70% and a pest or weed control at 125 g/ha (field violet; 125 g ai/ha, scale 0 to 100 (0 no effect, 100 complete control), read-out: Plant response rating, Field Violet) of 70%. The pest or weed control at 250 g/ha (field violet; 250 g ai/ha, scale 0 to 100 (0 no effect, 100 complete control), read-out: Plant response rating, Field Violet) was 70%, the pest or weed control at 16 g/ha (green foxtail; 16 g ai/ha, scale 0-100, read-out: Plant response rating, Foxtail, Green) was 0% and the pest or weed control at 31 g/ha (green foxtail; 31 g ai/ha, scale 0 to 100 (0 no effect, 100 complete control), read-out: Plant response rating, Foxtail, Green) was 0%. For the same compound, the pest or weed control at 62 g/ha (green foxtail; 62 g ai/ha, scale 0 to 100 (0 no effect, 100 complete control), read-out: Plant response rating, Foxtail, Green) was 0%, the pest or weed control at 125 g/ha (green foxtail; 125 g ai/ha, scale 0 to 100 (0 no effect, 100 complete control), read-out: Plant response rating, Foxtail, Green) was 10% and the pest or weed control at 250 g/ha (green foxtail; 250 g ai/ha, scale 0 to 100 (0 no effect, 100 complete control), read-out: Plant response rating, Foxtail, Green) was 20%. For the same compound, the pest or weed control at 16 g/ha (deadnettle; 16 g ai/ha, scale 0-100, read-out: Plant response rating, Deadnettle) was 10%, the pest or weed control at 31 g/ha (deadnettle; 31 g ai/ha, scale 0 to 100 (0 no effect, 100 complete control), read-out: Plant response rating, Deadnettle) was 10% and the pest or weed control at 62 g/ha (deadnettle; 62 g ai/ha, scale 0 to 100 (0 no effect, 100 complete control), read-out: Plant response rating, Deadnettle) was 20%. The pest or weed control at 125 g/ha (deadnettle; 125 g ai/ha, scale 0 to 100 (0 no effect, 100 complete control), read-out: Plant response rating, Deadnettle) was 30%, the pest or weed control at 250 g/ha (deadnettle; 250 g ai/ha, scale 0 to 100 (0 no effect, 100 complete control), read-out: Plant response rating, Deadnettle) was 40% and the pest or weed control at 16 g/ha (wild mustard [2]; 16 g ai/ha, scale 0-100, read-out: Plant response rating, Mustard, Wild) was 20%. The pest or weed control at 31 g/ha (wild mustard [2]; 31 g ai/ha, scale 0 to 100 (0 no effect, 100 complete control), read-out: Plant response rating, Mustard, Wild) was 50%, the pest or weed control at 62 g/ha (wild mustard [2]; 62 g ai/ha, scale 0 to 100 (0 no effect, 100 complete control), read-out: Plant response rating, Mustard, Wild) was 75% and the pest or weed control at 125 g/ha (wild mustard [2]; 125 g ai/ha, scale 0 to 100 (0 no effect, 100 complete control), read-out: Plant response rating, Mustard, Wild) was 95%. For the same compound, the pest or weed control at 250 g/ha (wild mustard [2]; 250 g ai/ha, scale 0 to 100 (0 no effect, 100 complete control), read-out: Plant response rating, Mustard, Wild) was 98%, the pest or weed control at 31 g/ha (sandbur; Postemergence, 31 g ai/ha, scale 0 to 100) was 0% and the pest or weed control at 62 g/ha (sandbur; Postemergence, 62 g ai/ha, scale 0 to 100) was 0%. It also gave a pest or weed control at 125 g/ha (sandbur; Postemergence, 125 g ai/ha, scale 0 to 100) of 0%, a pest or weed control at 8 g/ha (sandbur; postemergence, 8 g ai/ha, scale 0 to 100, 0 no effect, 100 complete control) of 0% and a pest or weed control at 16 g/ha (sandbur; postemergence, 16 g ai/ha, scale 0 to 100, 0 no effect, 100 complete control) of 0%.
